Laboratory results taken from US7872040B2, “Receptor blocker and vasodilator comprising indole derivative as active ingredient” (priority 2004, dated 2011).

How the values were obtained:
[1] = tested on: α2-adrenoceptor; test: Relaxation of clonidine-induced contraction of isolated rat thoracic aorta ring preparations (α2-receptor antagonistic and vasodilator effect); details: sample 10^-5 M; Wistar rat thoracic aorta rings contracted with clonidine (10^-7 M or 10^-6 M) in presence of L-NAME 10^-4 M; mean±standard error
Source text: (1) Preparation of Blood Vessel
Male Wistar rats were euthanized by cervical dislocation under ether anesthesia or without anesthesia and then exsanguinated by cutting the carotid arteries. Immediately thereafter, the thoracic aortae were isolated by thoracotomy. The isolated preparations were held in Krebs-Hepes solutions [mM: NaCl, 126.9; KCl, 5.9; CaCl2, 2.36; MgCl2, 1.18; Hepes, 10.03; glucose, 11.8 (pH=7.4)] gassed with O2 (100%). The connective tissues and adipose tissues were carefully removed under a stereoscopic microscope. Then, the aortic tissue was cut into ring preparations approximately 2 mm in length to use in the experiment. The vascular endothelium was not removed.
(2) Measurement of Muscle Contractile/Relaxant Response
The blood vessel preparations were held in an organ bath (UC-5TD, UFER™ Medical Instrument, Kyoto, Japan) containing 5 ml of Normal Tyrode's solution gassed with 95% O2-5% CO2. Two stainless hooks were used to suspend the preparations. Tension changes were recorded isometrically via tension transducers (T7-8-240, ORIENTEC Co., Ltd, Tokyo, Japan; and TB-611T, NIHON KOHDEN Corp., Tokyo, Japan) and amplifiers (AP-600G and AP-621G, NIHON KOHDEN Corp., Tokyo, Japan; and MSC-2, Labo Support Corporation, Osaka, Japan). Passive tension was set to the optimum tension of 2.0 g. The composition of the Normal Tyrode's solution was as follows: (mM): NaCl, 158.3; KCl, 4.0; CaCl2, 2.0; MgCl2, 1.05; NaH2PO4, 0.42; NaHCO3, 10.0; glucose, 5.6 (pH=7.4, 37±0.5° C.).
The preparations were then incubated for 60 to 90 minutes in Normal Tyrode's solution, which was replaced with 20-minute to 30-minute intervals. To start the experiment, the preparations were first allowed to contract with a high potassium solution (high-KCl, 80 mM KCl) [composition (mM): NaCl, 82.3; KCl, 80.0; CaCl2, 2.0; MgCl2, 1.05; NaH2PO4, 0.42; NaHCO3, 10.0; glucose, 5.6 (pH=7.4)] to confirm that the preparations normally contracted. Then, the preparations were washed with a Normal Tyrode's solution, and the experiment was started.
For the purpose of evaluating the potencies of indole derivatives tested, the artery preparations were stimulated with an α2-adrenoceptor agonist clonidine hydrochloride (Wako Pure Chemical Industries, Ltd., Osaka, Japan) (10^−7 M or 10^−6 M) in the presence of an NO synthase inhibitor N^G-nitro-L-arginine methyl ester (DOJNDO Laboratories, Kumamoto, Japan) (10^−4 M) to thereby induce continuous contraction. After developed tension reached a steady-sate level, samples (indole derivatives) (10^−5 M) were administered to the bath solution. After the relaxant effects of the samples reached the maximum levels, an α2-adrenoceptor antagonist yohimbine hydrochloride (Wako Pure Chemical Industries, Ltd., Osaka, Japan) (10^−5 M) was administered to the bath solution. Relaxant response to yohimbine hydrochloride (10^−5 M) and the height of contraction immediately before sample administration were defined as the maximum relaxation (=100%) and 0%, respectively, and the relaxant effect of the samples were expressed as percentages relative to the maximum relaxation to yohimbine hydrochloride (10^−5 M).
The indole derivatives (samples Nos. 1 to 23) were dissolved in 100% dimethyl sulfoxide at a concentration of 10^−2 M just before use and administered to a 5-mL organ bath for evaluation. All the other drugs were dissolved and diluted in distilled water.
The results were expressed as mean±standard error.

[2] = Clinical report: one test subject took sample No. 16 for 9 months and was followed up; type: in vivo, human
Procedure: A test subject was allowed to take the indole derivative (N-nonanoylindole-3-ethaneamine) of the sample No. 16 for 9 months, and followed up.
Test subject: healthy, 67 kg in body weight
Information before medication: non-smoking, approximately 180 ml of sake per week, well-balanced diets (meats, vegetables, and fishes) without fatty eating. The test subject has 100% white hair and goes to a barber shop once every five weeks. Their mustaches are sparse and remain in an unobtrusive growth state by shaving approximately once every two days. They are in the habit of jogging on Sunday. Muscle ache occurs about two days after the jogging and lasts for approximately 4 days. They feel insecure in erection (ED for approximately half a year).
Dosage and administration: two doses per day, administered at 1 mg around 12 p.m. and at 1 mg around 0 a.m.

[3] = after one month, 1 mg two doses per day

Compound	Reaction (%): relaxant effect relative to the maximum relaxation to yohimbine hydrochloride (10^-5 M) [1]	also measured
COc1c(Br)cc2[nH]c(Br)c(CCNC(C)=O)c2c1Br [compound 8, N-acetyl-2,4,6-tribromo-5-methoxyindole-3-ethaneamine]	85.6 ± 12.0%	–
N-adamantyl-2-(1-hydroxyindole-3-yl)acetamide [compound 22]	100.0 ± 0.00%	–
CCCCCCCCC(=O)NCCc1cn(O)c2ccccc12 [compound 17, 1-hydroxy-N-nonanoylindole-3-ethaneamine]	79.0 ± 13%	–
O=C(NCCc1c[nH]c2ccccc12)C1CC1 [compound 10, N-cyclopropylcarbonylindole-3-ethaneamine]	21.4%	–
COc1c(Br)cc2c(c1Br)c(CCNC(C)=O)c(Br)n2C(C)=O [compound 9, N,1-diacetyl-2,4,6-tribromo-5-methoxyindole-3-ethaneamine]	97.6 ± 2.4%	–
O=C(CCCc1c[nH]c2ccccc12)NC12CC3CC(CC(C3)C1)C2 [compound 18, N-adamantyl-4-(indole-3-yl)butaneamide]	58.6 ± 10.6%	–
CCCCCCC(=O)NCCc1c[nH]c2ccccc12 [compound 14, N-heptanoylindole-3-ethaneamine]	70.0 ± 6.9%	–
CCCCC(=O)NCCc1c[nH]c2ccccc12 [compound 12, N-pentanoylindole-3-ethaneamine]	26.9 ± 11.4%	–
COc1cc2c(CCNC(C)=O)c(Br)[nH]c2cc1Br [compound 6, N-acetyl-2,6-dibromo-5-methoxyindole-3-ethaneamine]	64.0 ± 4.1%	–
O=C(CCCc1c[nH]c2ccccc12)NC12CC3CC(CC(C3)C1)C2 [compound 23, N-adamantyl-4-(indole-3-yl)butaneamide]	91.5 ± 1.32%	–
N-adamantyl-4-(1-hydroxyindole-3-yl)butaneamide [compound 21]	87.7 ± 8.53%	–
CCCCCCC(=O)NCCc1cn(O)c2ccccc12 [compound 15, 1-hydroxy-N-heptanoylindole-3-ethaneamine]	66.2 ± 13.9%	–
COc1ccc2[nH]c(Br)c(CCNC(C)=O)c2c1 [compound 5, N-acetyl-2-bromo-5-methoxyindole-3-ethaneamine]	43.1 ± 16.0%	–
O=C(NCCc1cn(O)c2ccccc12)C1CC1 [compound 11, 1-hydroxy-N-cyclopropylcarbonylindole-3-ethaneamine]	15.7 ± 6.8%	–
N-adamantyl-2-(indole-3-yl)acetamide [compound 20]	64.2 ± 8.70%	–
COc1ccc2[nH]cc(CCNC(C)=O)c2c1Br [compound 4, N-acetyl-4-bromo-5-methoxyindole-3-ethaneamine]	20.3 ± 4.6%	–
N-adamantyl-3-(indole-3-yl)propaneamide [compound 19]	60.6 ± 20.7%	–
COc1ccc2[nH]c(Br)c(CCNC(C)=O)c2c1Br [compound 7, N-acetyl-2,4-dibromo-5-methoxyindole-3-ethaneamine]	73.5 ± 15.3%	–
COc1ccc2[nH]cc(CCNC(C)=O)c2c1 [compound 1, N-acetyl-5-methoxyindole-3-ethaneamine, reference compound]	6.7 ± 6.7%	–
CCCCCCCCC(=O)NCCc1c[nH]c2ccccc12 [compound 16, N-nonanoylindole-3-ethaneamine]	80.7 ± 2.5%	erection ([2]; after nine months): became equal to that in their newly-married days; hair regrowth ([2]; after nine months): approximately half the hairs in the whole head except for the left frontal part of the temporal region were black hairs; muscle ache after jogging ([2]; after nine months): rapidly disappeared in one day; skin tone and complexion ([2]; after nine months): improved; erection ([2]; after one month): considerably improved; memory ([2]; after one month): memory was improved; muscle ache after jogging ([2]; after one month): slight; growth of the black hairs [2, 3]: approximately 0.5 mm per day; hair regrowth [2, 3]: black hairs were observed to grow in the scalp of the frontal part of the parietal region that had no hair; erection ([2]; after three months): improved; hair regrowth ([2]; after three months): Many black hairs were observed to grow throughout the head except for the left frontal part of the temporal region; memory ([2]; after three months): memory and retentive powers were recovered; time until muscle ache after jogging disappeared ([2]; after three months): 2 days; duration of dilation of cutaneous and penile blood vessels ([2]; person, 1 mg two doses per day): approximately 10 hours
CCCCC(=O)NCCc1cn(O)c2ccccc12 [compound 13, 1-hydroxy-N-pentanoylindole-3-ethaneamine]	25.6 ± 6.0%	–
COc1ccc2c(c1)c(CCNC(C)=O)cn2C(C)=O [compound 2, N,1-diacetyl-5-methoxyindole-3-ethaneamine]	18.5 ± 9.8%	–
COc1ccc2[nH]cc(CCN(C(C)=O)C(C)=O)c2c1 [compound 3, N,N-diacetyl-5-methoxyindole-3-ethaneamine]	25.6 ± 7.5%	–
